Entries after “also recorded” stand apart in the source; their conditions may differ.
Columns and labels:
[1] = molecular target: human, recombinant full-length HDAC6 (Homo sapiens (Human), UniProt Q9UBN7); assay: HDAC inhibition assay, HDAC6; type: biochemical;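 further: recombinant full-length human HDAC1 and HDAC6 made in Sf9 cells, compound preincubated 5-10 min then substrate reaction 2 h at 30 °C, ten threefold dilutions from 30 µM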
[2] = molecular target: human, recombinant full-length HDAC1 (Homo sapiens (Human), UniProt Q13547); assay: HDAC inhibition assay, HDAC1; type: biochemical
Sequence of human, recombinant full-length HDAC1 (Q13547 whole entry): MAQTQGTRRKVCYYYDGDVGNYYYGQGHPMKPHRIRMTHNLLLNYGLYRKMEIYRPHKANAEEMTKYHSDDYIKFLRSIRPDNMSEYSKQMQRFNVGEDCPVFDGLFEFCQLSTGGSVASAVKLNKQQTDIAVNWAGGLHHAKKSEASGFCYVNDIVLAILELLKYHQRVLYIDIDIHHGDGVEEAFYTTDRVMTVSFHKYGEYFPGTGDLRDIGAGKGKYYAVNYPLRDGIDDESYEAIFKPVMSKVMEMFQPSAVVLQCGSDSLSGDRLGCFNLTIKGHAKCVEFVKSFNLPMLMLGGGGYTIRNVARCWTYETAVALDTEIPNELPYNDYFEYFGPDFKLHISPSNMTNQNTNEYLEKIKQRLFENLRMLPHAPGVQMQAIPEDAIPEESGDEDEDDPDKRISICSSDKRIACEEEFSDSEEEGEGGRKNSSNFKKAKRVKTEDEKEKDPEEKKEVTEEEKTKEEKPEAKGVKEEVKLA

[3] = system: acetyl α-tubulin in B16 melanoma cells; assay: Tubulin acetylation Western blot assay; type: cell-based, murine; conditions: low nanomolar treatment, 24 h
Procedure: (§1) […]. B16 melanoma cells were plated at 10^5 cells/well in 12 well plates and allowed to adhere overnight. A 50 mM stock of compound was then added by serial dilutions in complete medium to the indicated concentrations. Cells were incubated for 24 h under humidified conditions (37° C., 5% CO2). Wells were then washed with cold PBS, and cells were lysed in a buffer containing 10 mM Tris-HCl pH 8.0, 10% SDS, […], 100 mM DTT, and 1× protease inhibitor (Roche). Cells were lysed for 30 min on ice and then sonicated for 8 min (8 cycles of 30 s on/30 s rest). Cells were then boiled for 10 min with 6× gel loading buffer and resolved on 4-15% gradient gels and subsequently transferred onto nitrocellulose membranes. Membranes were blocked with 5% milk in PBS-T and detection of specific antigens using antibodies against acetyl-H3 and H3 (Cell Signaling), and acetyl-α-tubulin and α-tubulin (Sigma). Bands were detected by scanning blots with LI-COR Odyssey imaging system using both 700 and 800 channels.

[4] = system: histone H3 acetylation in B16 melanoma cells; assay: Histone acetylation Western blot assay; type: cell-based, murine
Procedure: as §1

HDAC3 = HDAC3 (Homo sapiens (Human), UniProt O15379); assay: HDAC isoform profile, HDAC3; type: biochemical; conditions: Table 3 isoform profile
Sequence of HDAC3 (O15379 whole entry, canonical isoform): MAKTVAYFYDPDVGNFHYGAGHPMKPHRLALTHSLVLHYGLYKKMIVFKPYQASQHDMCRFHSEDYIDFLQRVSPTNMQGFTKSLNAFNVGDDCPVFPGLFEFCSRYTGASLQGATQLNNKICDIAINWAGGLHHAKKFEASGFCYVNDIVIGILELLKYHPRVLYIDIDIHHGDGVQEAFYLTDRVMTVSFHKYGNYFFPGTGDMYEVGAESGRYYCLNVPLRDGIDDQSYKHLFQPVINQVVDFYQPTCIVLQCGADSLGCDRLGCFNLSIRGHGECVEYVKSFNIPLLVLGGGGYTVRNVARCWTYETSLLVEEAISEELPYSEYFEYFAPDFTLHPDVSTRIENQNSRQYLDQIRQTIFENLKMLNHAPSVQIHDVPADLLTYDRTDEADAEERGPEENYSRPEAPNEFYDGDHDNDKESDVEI
Sequence of HDAC3 (Q9Y618 395-489 partner): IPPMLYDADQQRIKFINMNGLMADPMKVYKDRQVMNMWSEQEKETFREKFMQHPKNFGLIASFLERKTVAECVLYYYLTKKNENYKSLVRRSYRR

[5] = system: B16 murine melanoma cells; assay: B16 melanoma cell growth inhibition assay (MTS); type: cell-based
Procedure: B16 murine melanoma cells were plated at 5×10^3/well in 96 well flat bottom plates. The following day, media was changed to that containing various concentrations of HDACi or matched DMSO vehicle concentrations diluted in complete medium done in triplicate. Cells were incubated for 48 hours at 37° C. and 5% CO2. […] Briefly, 20 μL of reagent were added per well and incubated at 37° C. for 3 hours. […] All values were then normalized and expressed as a percentage of medium control (100%).

[6] = system: STAT3 phosphorylation and recruitment to the IL-10 gene promotor; assay: STAT3 phosphorylation and recruitment to the IL-10 gene promotor in APCs; type: cell-based
[7] = system: antigen-specific T-cell responses; assay: Antigen-specific T-cell responses to vaccination in vivo; set-up: species or system mice; conditions: in vivo treatment
macrophages = assay: Immunological effects upon macrophages; type: cell-based
MCL = assay: Antitumor effect in MCL-bearing mice; type: in vivo
melanoma = assay: Anti-melanoma effect in vivo; conditions: alone or in combination with anti-CLTA4
[8] = system: naIve and anergic T-cells; assay: In vitro antigen-presenting studies with treated macrophages; type: cell-based
[9] = system: JAK2/STAT3 phosphorylation; assay: JAK2/STAT3 phosphorylation in B16 murine melanoma cells in vivo
[10] = Table 1, mean of two experiments ± standard deviation, 10-point enzyme assay

Sequence of human, recombinant full-length HDAC6 (Q9UBN7 whole entry): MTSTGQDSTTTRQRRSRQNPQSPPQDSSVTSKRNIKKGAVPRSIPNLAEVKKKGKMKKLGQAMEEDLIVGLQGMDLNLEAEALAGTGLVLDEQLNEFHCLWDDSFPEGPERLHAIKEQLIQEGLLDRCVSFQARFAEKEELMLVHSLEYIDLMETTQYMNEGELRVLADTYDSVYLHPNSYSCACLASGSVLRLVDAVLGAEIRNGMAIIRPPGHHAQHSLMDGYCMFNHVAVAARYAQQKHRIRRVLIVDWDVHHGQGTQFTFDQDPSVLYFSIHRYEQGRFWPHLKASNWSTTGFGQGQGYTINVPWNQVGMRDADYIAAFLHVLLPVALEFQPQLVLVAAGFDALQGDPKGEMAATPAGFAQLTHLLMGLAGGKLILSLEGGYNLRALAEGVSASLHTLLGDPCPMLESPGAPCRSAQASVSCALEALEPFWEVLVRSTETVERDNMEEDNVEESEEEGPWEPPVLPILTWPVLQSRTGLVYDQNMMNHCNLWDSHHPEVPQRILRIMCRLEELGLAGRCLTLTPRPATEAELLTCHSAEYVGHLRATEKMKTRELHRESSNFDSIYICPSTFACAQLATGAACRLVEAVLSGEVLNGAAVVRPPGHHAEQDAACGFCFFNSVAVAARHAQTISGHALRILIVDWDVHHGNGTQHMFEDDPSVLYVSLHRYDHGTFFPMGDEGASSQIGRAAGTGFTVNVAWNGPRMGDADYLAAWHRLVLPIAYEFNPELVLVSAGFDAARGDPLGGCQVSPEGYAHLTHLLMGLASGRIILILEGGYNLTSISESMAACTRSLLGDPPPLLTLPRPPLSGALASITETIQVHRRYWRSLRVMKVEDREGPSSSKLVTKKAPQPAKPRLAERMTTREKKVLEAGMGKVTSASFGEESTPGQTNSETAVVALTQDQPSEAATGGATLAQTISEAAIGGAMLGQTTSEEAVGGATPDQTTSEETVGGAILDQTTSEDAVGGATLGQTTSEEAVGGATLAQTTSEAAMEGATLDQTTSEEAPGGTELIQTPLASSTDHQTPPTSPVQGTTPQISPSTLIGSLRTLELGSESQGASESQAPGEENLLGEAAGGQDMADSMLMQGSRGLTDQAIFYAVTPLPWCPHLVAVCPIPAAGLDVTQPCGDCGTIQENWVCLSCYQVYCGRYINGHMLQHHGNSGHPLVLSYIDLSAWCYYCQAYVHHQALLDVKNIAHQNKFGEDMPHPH

| Structure (SMILES) | Fold Selective (HDAC1/HDAC6) ([1]; Table 1) | IC50 [1, 10] [nM] | IC50 [2, 10] [nM] | also measured |
| --- | --- | --- | --- | --- |
| COc1ccccc1NC(=O)NCc1ccc(C(=O)NO)cc1 [Compound 1] | 2 | 139 ± 27 | 265 ± 59 |  |
| COc1ccccc1NC(=O)N(CCCN(C)C)Cc1ccc(C(=O)NO)cc1 [Compound 5a, 4-((1-(3-(dimethylamino)propyl)-3-(2-methoxyphenyl)ureido)methyl)-N-hydroxybenzamide] | 6 | 458 ± 64 | 2550 ± 540 |  |
| COc1ccccc1NC(=O)N(CCCO)Cc1ccc(C(=O)NO)cc1 [Compound 5b, N-hydroxy-4-((1-(3-hydroxypropyl)-3-(2-methoxyphenyl)ureido)methyl)-benzamide] | 803 | 2.38 ± 0.38 | 1910 ± 570 |  |
| COc1ccccc1NC(=O)N(CCc1c[nH]c2ccccc12)Cc1ccc(C(=O)NO)cc1 [Compound 5c, 4-((1-(2-(1H-indol-3-yl)ethyl)-3-(2-methoxyphenyl)ureido)methyl)-N-hydroxybenzamide] | 19 | 468 ± 130 | 8950 ± 770 |  |
| COc1ccccc1NC(=O)N(CCc1ccc(O)cc1)Cc1ccc(C(=O)NO)cc1 [Compound 5d, N-hydroxy-4-((1-(4-hydroxyphenethyl)-3-(2-methoxyphenyl)ureido)methyl)-benzamide] | 292 | 5.8 ± 0.5 | 1690 ± 120 |  |
| COCCCN(Cc1ccc(C(=O)NO)cc1)C(=O)Nc1ccccc1 [Compound 5e, N-hydroxy-4-((1-(3-methoxypropyl)-3-phenylureido)methyl)benzamide] | 443 | 11.7 ± 1.7 | 5180 ± 130 |  |
| COCCN(Cc1ccc(C(=O)NO)cc1)C(=O)Nc1ccccc1 [Compound 5f, N-hydroxy-4-((1-(2-methoxyethyl)-3-phenylureido)methyl)benzamide] | 243 | 9.26 ± 0.66 | 2250 ± 420 |  |
| CCCCN(Cc1ccc(C(=O)NO)cc1)C(=O)Nc1ccccc1 [Compound 5g, 4-((1-butyl-3-phenylureido)methyl)-N-hydroxybenzamide] |  |  |  | acetyl α-tubulin levels [3]: dose-dependant increase of acetyl α-tubulin levels; also recorded: increased acetyl-tubulin levels; histone H3 acetylation ([4]; concentrations of 1 and 10 μM): observable increase in histone H3 acetylation; histone H3 acetylation ([4]; low nanomolar treatment, 24 h): without a concamanent elevation of histone H3 acetylation; IC50 (HDAC3): 6680 ± 1750 nM |
| O=C(NO)c1ccc(CN(CCc2ccccc2)C(=O)Nc2ccccc2)cc1 [Compound 5h, N-hydroxy-4-((1-phenethyl-3-phenylureido)methyl)benzamide] | 222 | 14 ± 0.75 | 3120 ± 640 | growth inhibition of B16 melanoma cells (in words) [5]: capable of inhibiting the growth of B16 melanoma cell line |
| CCCCN(C(=O)NCc1ccc(C(=O)NO)cc1)c1ccccc1 [Compound 8a, 4-((3-butyl-3-phenylureido)methyl)-N-hydroxybenzamide] | 322 | 25.2 ± 2.5 | 8120 ± 600 |  |
| COc1ccc(NC(=O)NCc2ccc(C(=O)NO)cc2)cc1 [Compound 9a] | 128 | 8.3 | 1060 |  |
| Cc1ccnc(NC(=O)NCc2ccc(C(=O)NO)cc2)c1 [Compound 9b] | 263 | 2.2 | 579 |  |
| Cc1cc(NC(=O)NCc2ccc(C(=O)NO)cc2)no1 [Compound 9c] | 145 | 6.9 | 1000 |  |
| COc1ccccc1N1C(=O)N(Cc2ccc(C(=O)NO)cc2)C(C)(C)C1=O [Compound 10a] |  |  |  | Fold Selective (HDAC1/HDAC6) ([1]; Table 2, cyclic urea compounds): 386; IC50 ([1]; Table 2, cyclic urea compounds): 74.2 nM; IC50 ([2]; Table 2, cyclic urea compounds): 28600 nM |
| CC(C)[C@@H]1C(=O)N(c2ccccc2)C(=O)N1Cc1ccc(C(=O)NO)cc1 [Compound 10b] |  |  |  | Fold Selective (HDAC1/HDAC6) ([1]; Table 2, cyclic urea compounds): 531; IC50 ([1]; Table 2, cyclic urea compounds): 22.2 nM; IC50 ([2]; Table 2, cyclic urea compounds): 11800 nM |
| O=C(NO)c1ccc(CN2C(=O)N[C@@H](Cc3ccccc3)C2=O)cc1 [Compound 11a] |  |  |  | Fold Selective (HDAC1/HDAC6) ([1]; Table 2, cyclic urea compounds): 295; IC50 ([1]; Table 2, cyclic urea compounds): 25.6 nM; IC50 ([2]; Table 2, cyclic urea compounds): 7560 nM |
| CN1CCc2c(c3ccccc3n2Cc2ccc(C(=O)NO)cc2)C1 [Tubastatin A] |  |  |  | STAT3 phosphorylation and recruitment to the IL-10 gene promotor [6]: decreased STAT3 phosphorylation and recruitment to the IL-10 gene promotor; antigen-specific T-cell responses to vaccination [7]: augments antigen-specific CD4+ T-cell responses to vaccination; antigen-specific T-cell responses to vaccination ([7]; listed as Tubastatin-A): enhances antigen-specific T-cell responses to vaccination; IL-10 production (macrophages): inhibits IL-10 production; expression of co-stimulatory molecules (macrophages): increased the expression of co-stimulatory molecules; antitumor effect (MCL): strong antitumor effect; anti-melanoma effect (melanoma): anti-melanoma effect; activation of T-cells by treated macrophages [8]: better activators of naIve T-cells and restore the responsiveness of anergic T-cells; JAK2/STAT3 phosphorylation [9]: inhibits JAK2/STAT3 phosphorylation |

Source: patent publication US9409858B2, “Selective histone deactylase 6 inhibitors” (H. LEE MOFFITT CANCER CENTER AND RESEARCH INSTITUTE, INC., priority 2012, dated 2016)
